Data set [1] relates to obese female hyperinsulinemic nondiabetic Zucker rats. As to the kind of experiment: oral glucose tolerance test after 35 days treatment of obese Zucker rats. Particulars: FIG. 1. It counts as in vivo, rat. As to the method: 14 obese female hyperinsulinemic nondiabetic Zucker rats were treated with the test compound 6-chloro-3-(1-methylcylodopropyl)amino-4H-thieno[3,2-e]-1,2,4-thiadiazine 1,1-dioxide and 14 were treated with vehicle for 35 days. After treatment, oral glucose tolerance was tested and found to be improved in animals treated with 6-chloro-3-(1-methylcylodopropyl)amino-4H-thieno[3,2-e]-1,2,4-thiadiazine 1,1-dioxide and the improvement was associated with decreased hyperinsulinemia.

The test system of data set [2] is women with Polycystic Ovary Syndrome (PCOS). Particulars: Nestler et al. 1989; cited from earlier work.
The subject of data set [3] is KATP-channels on pancreatic β-cells. The note with it: by activation of KATP-channels on pancreatic β-cells; Pirotte et al. 1993, 1994; cited from earlier work.

For the molecule `CC1(NC2=NS(=O)(=O)c3sc(Cl)cc3N2)CC1` [6-chloro-3-(1-methylcylodopropyl)amino-4H-thieno[3,2-e]-1,2,4-thiadiazine 1,1-dioxide], the hyperinsulinemia result in data set [1] (associated with the improved glucose tolerance) is on record as “decreased”. In addition, the oral glucose tolerance entry in data set [1] (compared with vehicle) was “improved”.
With `CC1=Nc2ccc(Cl)cc2S(=O)(=O)N1` [diazoxide, 7-chloro-3-methyl-2H-1,2,4-benzothiadiazine 1,1-dioxide], in data set [2], the “concentrations of serum testosterone” value is listed as “reduce”, the “glycaemia (adverse effect due to the reduction in insulin)” value was “significantly hyperglycemic” and the hyperinsulinaemia result was “reduce”. In data set [3], the insulin release result is on record as “inhibit”.

The values are drawn from patent publication US20030125323A1, “Use of selective potassium channel openers” (priority 2001, published 2003).
